PubChem BioAssay (NCI)
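Protocol summary: plate cells (96-well), add compound at 5 concentrations, incubate 48 h, interpolate endpoints linearly. GI50 = concentration required for 50% inhibition of growth. TGI marks complete inhibition of growth.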

Legend:
Assay in all cases: inhibition of tumour cell growth, NCI panel, 48 h
DU-145 prostate = tested on: DU-145 prostate
HS 578T breast = tested on: HS 578T breast
IGROV1 ovarian = tested on: IGROV1 ovarian
SF-268 CNS = tested on: SF-268 CNS
NCI-H460 lung = tested on: NCI-H460 lung
786-0 renal = tested on: 786-0 renal
NCI-H226 lung = tested on: NCI-H226 lung
KM12 colon = tested on: KM12 colon
NCI-H23 lung = tested on: NCI-H23 lung
HCC-2998 colon = tested on: HCC-2998 colon
HCT-15 colon = tested on: HCT-15 colon
MALME-3M melanoma = tested on: MALME-3M melanoma
K-562 leukemia = tested on: K-562 leukemia
A549 NSCLC = tested on: A549 NSCLC
NCI-H522 lung = tested on: NCI-H522 lung
OVCAR-8 ovarian = tested on: OVCAR-8 ovarian
A498 renal = tested on: A498 renal
M14 melanoma = tested on: M14 melanoma
HCT-116 colon = tested on: HCT-116 colon
UO-31 renal = tested on: UO-31 renal
SNB-75 CNS = tested on: SNB-75 CNS
OVCAR-3 ovarian = tested on: OVCAR-3 ovarian
CAKI-1 renal = tested on: CAKI-1 renal
SK-MEL-5 melanoma = tested on: SK-MEL-5 melanoma
ACHN renal = tested on: ACHN renal
SK-MEL-2 melanoma = tested on: SK-MEL-2 melanoma
PC-3 prostate = tested on: PC-3 prostate
HT29 colon = tested on: HT29 colon
BT-549 breast = tested on: BT-549 breast
MDA-MB-468 breast = tested on: MDA-MB-468 breast
LOX IMVI melanoma = tested on: LOX IMVI melanoma
SF-539 CNS = tested on: SF-539 CNS
UACC-257 melanoma = tested on: UACC-257 melanoma
HOP-92 NSCLC = tested on: HOP-92 NSCLC
NCI/ADR-RES ovarian = tested on: NCI/ADR-RES ovarian
RPMI-8226 leukemia = tested on: RPMI-8226 leukemia
COLO 205 colon = tested on: COLO 205 colon
U251 CNS = tested on: U251 CNS
T-47D breast = tested on: T-47D breast
HL-60(TB) leukemia = tested on: HL-60(TB) leukemia
TK-10 renal = tested on: TK-10 renal
MDA-MB-435 = tested on: MDA-MB-435
SK-OV-3 ovarian = tested on: SK-OV-3 ovarian
OVCAR-5 ovarian = tested on: OVCAR-5 ovarian
SW-620 colon = tested on: SW-620 colon
HOP-62 NSCLC = tested on: HOP-62 NSCLC
EKVX NSCLC = tested on: EKVX NSCLC
SK-MEL-28 melanoma = tested on: SK-MEL-28 melanoma
MCF7 breast = tested on: MCF7 breast
SF-295 CNS = tested on: SF-295 CNS
CCRF-CEM leukemia = tested on: CCRF-CEM leukemia

## CN(C)c1nc(NCCNS(=O)(=O)c2ccc(C3=Nc4c(N)nc(N)nc4NC(c4ccc(F)cc4)C3)cc2)nc(Nc2ccc(F)cc2)n1 (configuration not stated)
DU-145 prostate
  GI50: 52 µM
  TGI: > 100 µM
HS 578T breast
  GI50: 5.7 µM
  TGI: > 100 µM
IGROV1 ovarian
  GI50: 5.01 µM
  TGI: > 100 µM
SF-268 CNS
  GI50: 4.83 µM
  TGI: > 100 µM
NCI-H460 lung
  GI50: 4.74 µM
  TGI: > 100 µM
786-0 renal
  GI50: 4.77 µM
  TGI: > 100 µM
NCI-H226 lung
  GI50: > 100 µM
  TGI: > 100 µM
KM12 colon
  GI50: 4.69 µM
  TGI: > 100 µM
NCI-H23 lung
  GI50: 54.1 µM
  TGI: > 100 µM
HCC-2998 colon
  GI50: 4.22 µM
  TGI: > 100 µM
HCT-15 colon
  GI50: > 100 µM
  TGI: > 100 µM
MALME-3M melanoma
  GI50: 6.28 µM
  TGI: > 100 µM
K-562 leukemia
  GI50: 2.8 µM
  TGI: > 100 µM
A549 NSCLC
  GI50: > 100 µM
  TGI: > 100 µM
NCI-H522 lung
  GI50: 34.8 µM
  TGI: > 100 µM
OVCAR-8 ovarian
  GI50: 12 µM
  TGI: > 100 µM
A498 renal
  GI50: 22.1 µM
  TGI: > 100 µM
M14 melanoma
  GI50: 3.84 µM
  TGI: 25.3 µM
HCT-116 colon
  GI50: 4.54 µM
  TGI: > 100 µM
UO-31 renal
  GI50: > 100 µM
  TGI: > 100 µM
SNB-75 CNS
  GI50: 2.53 µM
  TGI: 74 µM
OVCAR-3 ovarian
  GI50: 8.09 µM
  TGI: > 100 µM
CAKI-1 renal
  GI50: 6.5 µM
  TGI: > 100 µM
SK-MEL-5 melanoma
  GI50: 3.36 µM
  TGI: 14.9 µM
ACHN renal
  GI50: > 100 µM
  TGI: > 100 µM
SK-MEL-2 melanoma
  GI50: 8.17 µM
  TGI: 29 µM
PC-3 prostate
  GI50: 5.04 µM
  TGI: > 100 µM
HT29 colon
  GI50: 3.88 µM
  TGI: > 100 µM
BT-549 breast
  GI50: 3.26 µM
  TGI: 18.2 µM
MDA-MB-468 breast
  GI50: 2.15 µM
  TGI: 6.24 µM
LOX IMVI melanoma
  GI50: 2.62 µM
  TGI: 9.13 µM
SF-539 CNS
  GI50: 3.89 µM
  TGI: > 100 µM
UACC-257 melanoma
  GI50: 11.4 µM
  TGI: > 100 µM
HOP-92 NSCLC
  GI50: 3.09 µM
  TGI: 23.3 µM
NCI/ADR-RES ovarian
  GI50: > 100 µM
  TGI: > 100 µM
RPMI-8226 leukemia
  GI50: 5.25 µM
  TGI: > 100 µM
COLO 205 colon
  GI50: 11.8 µM
  TGI: > 100 µM
U251 CNS
  GI50: 6.35 µM
  TGI: > 100 µM
T-47D breast
  GI50: 4.86 µM
  TGI: > 100 µM
HL-60(TB) leukemia
  GI50: 3.12 µM
  TGI: > 100 µM
TK-10 renal
  GI50: > 100 µM
  TGI: > 100 µM
MDA-MB-435
  GI50: 5.93 µM
  TGI: > 100 µM
SK-OV-3 ovarian
  GI50: > 100 µM
  TGI: > 100 µM
OVCAR-5 ovarian
  GI50: > 100 µM
  TGI: > 100 µM
SW-620 colon
  GI50: 8.27 µM
  TGI: > 100 µM
HOP-62 NSCLC
  GI50: 96 µM
  TGI: > 100 µM
EKVX NSCLC
  GI50: 5.17 µM
  TGI: > 100 µM
SK-MEL-28 melanoma
  GI50: 15.7 µM
  TGI: > 100 µM
MCF7 breast
  GI50: 3.16 µM
  TGI: 43.7 µM
SF-295 CNS
  GI50: 6.71 µM
  TGI: > 100 µM
CCRF-CEM leukemia
  GI50: 3.99 µM
  TGI: > 100 µM
